Converted amounts (≈) assume the structure as drawn. Read-outs that look alike come from different tables or passages of the source. Marks after values point to notes of the source that are not given here.
Assays:
[1] = Aqueous solubility, 24 h equilibration, HPLC of filtrate; format: physicochemical
Protocol: (§1) HPLC was carried out in a TSP instrument with a P4000 pump, an AS3000 autosampler, an SCM1000 degasser, a UV3000 detector, and PC1000 Version 4.1 software.
The pH of the corresponding saturated solution was 6.1. […] This may be due to chemical instability of dexlansoprazole in the solution environment.

[2] = Kinetic solubility experiment in water; format: physicochemical
Protocol: as §1
A further experiment to evaluate the kinetic solubility was carried out. The maximum was reached already after 15 minutes and that the concentration in the solution remained constant for the duration of the experiment.

[3] = Dynamic vapor sorption (DVS), hygroscopicity; format: physicochemical; conditions: for DVS weight gain at 85% relative humidity: 85% r.h.; for FT-Raman post-DVS compared with pre-DVS/reference (form change): after DVS cycle
Protocol: DVS was carried out in a Surface Measurement System DVS-1. The sample was placed on a platinum holder on top of a microbalance and allowed to equilibrate for 2 hours at 50% r.h. before starting the pre-defined humidity program: 50→95% r.h. (5%/h); 5 hours at 95% r.h., 95→0% r.h. (5%/h); 5 h at 0% r.h., then 0→50% r.h. (5%/h); and 2 hours at 50% r.h.
The hygroscopicity was classified based on the mass gain at 85% r.h. relative to the initial mass as follows: deliquescent (sufficient water adsorbed to form a liquid), very hygroscopic (mass increase of ≧15%), hygroscopic (mass increase <15% but ≧2%), slightly hygroscopic (mass increase <2% but ≧0.2%), or non-hygroscopic (mass increase <0.2%).
In order to examine the behavior of SP134-SBT-P26 in the presence of variable water vapor pressure, the sample was analyzed by isothermal DVS at 25° C. […] The sample was conditioned at 50% r.h. before starting a pre-defined humidity program with a scanning rate of 5% r.h. change per hour. Below 50% r.h. a small but continuous mass loss of the sample is observed (˜0.07%). This mass loss is in good accordance to the results of the TG-FTIR-measurement and Karl Fischer water content determination.
In order to examine the behavior of SP134-SBT-P27 in the presence of variable water vapor pressure, the sample was analyzed by isothermal DVS at 25° C. The sample was conditioned at 50% r.h. before starting a pre-defined humidity program with a scanning rate of 5% r.h. change per hour. Below 50% r.h. a small but continuous mass loss of the sample is observed (˜0.06%). This mass loss is in good accordance to the results of the TG-FTIR-measurement and Karl Fischer water content determination.

[4] = Stability of the co-crystal as a solid and in water or solution; conditions: for Stability in water for 24 hours: 25° C., disintegration into its components
Protocol: Solubility was determined by adding approximately 0.5 mL of doubly distilled water to 19.1 mg of the substance to be measured. The resulting suspension was equilibrated in a temperature-controlled Eppendorf Thermomixer Comfort Shaker for 24 hours at 25° C. at a shaking rate of 500 rpm. The solid phase was recovered by filter centrifugation (0.1-μm PVDF membrane) and examined by FT-Raman spectroscopy. Concentrations in the filtrate (i.e., saturated solutions) or diluted solutions thereof were determined using the HPLC method disclosed herein. The pH of the saturated solution was determined with a Metrohm 713 pH meter.

[5] = Approximate solubility by manual dilution combined with visual observation; conditions: for solubility / Solubility (mg/mL): room temperature
Protocol: (§2) The approximate solubilities of the sorbitol co-crystal former were estimated at 60° C. and of the 1:1 dexlansoprazole-sorbitol co-crystal at 40° C. and 10° C. […] The solubility values presented are intended to be regarded as rough estimates and are to be used solely for the design of crystallization experiments. All solvent mixtures are listed as ratios by volume (v/v).
(§3) The solubility values presented are intended to be regarded as rough estimates and are to be used solely for the design of crystallization experiments. All solvent mixtures are listed as ratios by volume (v/v).

[6] = Approximate solubility tests in selected solvents; format: physicochemical; conditions: organic solvent or mixture, read-out: Solubility [S, mg/ml]
Description: A sample of dexlansoprazole sesquihydrate was characterized by FT-Raman spectroscopy, XRPD, ^1H-NMR and approximate solubility tests.
Accordingly, ethanol, ethyl acetate, acetonitrile, and THF were chosen as solvents for the co-crystal screening.

physchem = conditions: thermodynamic from solid
Protocol: as §2, §3

[7] = cited from earlier work
[8] = 1:1 EtOAc/DMSO (v/v), organic solvent or mixture
[9] = 1:1 EtOH/H2O (v/v), aqueous with cosolvent or surfactant or cyclodextrin
[10] = 2:1 EtOH/H2O + 5 vol.-% NH3 solution, aqueous with cosolvent or surfactant or cyclodextrin
[11] = 2:1 MeOH/H2O + 5 vol.-% NH3 solution, aqueous with cosolvent or surfactant or cyclodextrin
[12] = 2:1 MeOH/borax buffer, pH 9, aqueous with cosolvent or surfactant or cyclodextrin
[13] = 9:1 EtOAc/DMSO (v/v), organic solvent or mixture
[14] = DMSO, organic solvent or mixture
[15] = EtOAc, organic solvent or mixture
[16] = MeOH, organic solvent or mixture
[17] = isothermal DVS at 25° C., listed as SP134-SBT-P27

Compound: Cc1c(OCC(F)(F)F)ccnc1C[S+]([O-])c1nc2ccccc2[nH]1.Cc1c(OCC(F)(F)F)ccnc1C[S+]([O-])c1nc2ccccc2[nH]1.OCC(O)C(O)C(O)C(O)CO.OCC(O)C(O)C(O)C(O)CO.OCC(O)C(O)C(O)C(O)CO (stereo not shown) [SP134-SBT-P7]
- Solubility in water ([1]; 24 hours equilibration at 22° C., solid residue was free drug, so value corresponds to free drug): 0.18 mg/mL
- pH of the saturated solution ([1]; water, 24 hours equilibration): 6.1
- Solubility as a function of time, constant value reached ([2]; after 15 minutes): 0.25 mg/mL
- Kinetic solubility in water ([2]; 15 min): 0.25 mg dexlansoprazole per ml
- Kinetic solubility in water ([2]; 30 min): 0.26 mg dexlansoprazole per ml
- Kinetic solubility in water ([2]; 1 hour): 0.26 mg dexlansoprazole per ml
- Kinetic solubility in water ([2]; 2 hour): 0.24 mg dexlansoprazole per ml
- Kinetic solubility in water ([2]; 4 hrs.): 0.27 mg dexlansoprazole per ml
- Kinetic solubility in water ([2]; 8 hrs.): 0.27 mg dexlansoprazole per ml
- Reversibility of DVS weight gain and loss [3]: reversible
- DVS weight loss at 0% r.h. relative to the starting weight ([3]; 0% r.h.): < 1 wt.-%
- DVS weight increase at 50% r.h. on desorption relative to the starting weight ([3]; 50% r.h. after lowering from 95% r.h.): ~1 wt. %
- DVS step in weight gain ([3]; 70-75% r.h.): ~4 wt.-%
- DVS weight gain at 85% relative humidity [3]: (~70-75% r.h.), gain of ~7 wt.-% at 85% r.h.;
- DVS weight gain at 85% relative humidity ([3]; listed as sorbitol co-crystal): ~7 wt.-%
- FT-Raman post-DVS compared with pre-DVS/reference (form change) [3]: no significant changes
- Hygroscopicity class ([3]; mass gain at 85% r.h. relative to the initial mass, listed as sorbitol co-crystal): hygroscopic (mass increase <15% but ≧2%)
- DVS weight gain at 95% relative humidity ([3]; r.h. raised from 50% to 95%): 20 wt.-%
- Stability as a solid ([4]; solid): stable
- Stability in water for 24 hours [4]: solid form not stable in H2O for 24 h, disintegrates
- Stability in water for 24 hours ([4]; listed as dexlansoprazole/sorbitol co-crystal): not stable
- solubility ([5]; 1:1 EtOAc/DMSO): >200 mg/mL
- Solubility (mg/mL) ([5]; 1:1 EtOH/H2O): 50-100^a mg/mL
- solubility ([5]; 2:1 EtOH/H2O + 5 vol.-% NH3 solution): 60 to 100 mg/mL
- solubility ([5]; 2:1 MeOH/H2O + 5 vol.-% NH3 solution): 60 to 100 mg/mL
- Solubility (mg/mL) ([5]; 2:1 MeOH/borax buffer (pH = 9.0)): 45-65^a mg/mL
- solubility ([5]; 9:1 EtOAc/DMSO): ~10 mg/mL
- solubility ([5]; EtOAc): <1 mg/mL
- Solubility (mg/mL) ([5]; H2O): 0.25^a mg/mL

Compound: Cc1c(OCC(F)(F)F)ccnc1C[S@@+]([O-])c1nc2ccccc2[nH]1 [SP134-FD-P1, dexlansoprazole sesquihydrate, reference compound]
- solubility ([6]; MEK): ~226 mg/mL
- solubility ([6]; THF): ~228 mg/mL
- solubility ([6]; acetone): ~230 mg/mL
- solubility ([6]; acetonitrile): ~210 mg/mL
- solubility ([6]; ethanol): ~228 mg/mL
- solubility ([6]; ethyl acetate): ~204 mg/mL
- solubility ([6]; methanol): ~204 mg/mL
- solubility (physchem; [8]): > 200 mg/mL
- solubility (physchem; [9]): ~30 mg/mL
- solubility (physchem; [10]): 100 to 200 mg/mL
- solubility (physchem; [11]): 100 to 200 mg/mL
- solubility (physchem; [12]): 90 to 190 mg/mL
- solubility (physchem; [13]): > 200 mg/mL
- solubility (physchem; [14]): > 200 mg/mL
- solubility (physchem; [15]): > 20 mg/mL
- solubility (physchem; [16]): > 200 mg/mL
- solubility (physchem; ethanol, organic solvent or mixture): > 200 mg/mL
- solubility (physchem; water): < 1 mg/mL

Compound: OC[C@@H](O)[C@@H](O)[C@H](O)[C@@H](O)CO [Sorbitol, D-sorbitol]
- solubility (physchem; 1:1 DMSO/EtOH (v/v), 60 °C, organic solvent or mixture): > 102 mg/mL
- solubility (physchem; [8]): 125 to 250 mg/mL (≈ 686 to 1370 mM)
- solubility (physchem; 1:1 EtOAc/EtOH (v/v), 60 °C, organic solvent or mixture): 3 mg/mL (≈ 16.5 mM)
- solubility (physchem; [9]): ~160 mg/mL (≈ 878 mM)
- solubility (physchem; 1:2 EtOAc/EtOH (v/v), 60 °C, organic solvent or mixture): 6 mg/mL (≈ 32.9 mM)
- solubility (physchem; 1:3 DMSO/EtOH (v/v), 60 °C, organic solvent or mixture): 54 to 108 mg/mL (≈ 296 to 593 mM)
- solubility (physchem; 1:3 EtOAc/EtOH (v/v), 60 °C, organic solvent or mixture): 10 mg/mL (≈ 54.9 mM)
- solubility (physchem; 1:5 DMSO/EtOH (v/v), 60 °C, organic solvent or mixture): 39 to 59 mg/mL (≈ 214 to 324 mM)
- solubility (physchem; 1:5 EtOAc/EtOH (v/v), 60 °C, organic solvent or mixture): 11 mg/mL (≈ 60.4 mM)
- solubility (physchem; [10]): 125 to 250 mg/mL
- solubility (physchem; [11]): > 250 mg/mL
- solubility (physchem; [12]): > 250 mg/mL
- solubility (physchem; [13]): ~1 mg/mL (≈ 5.49 mM)
- solubility (physchem; [14]): > 200 mg/mL
- solubility (physchem; [15]): < 1 mg/mL
- solubility (physchem; [16]): ~13 mg/mL (≈ 71.4 mM)
- solubility (physchem; water): > 200 mg/mL

Compound: Cc1c(OCC(F)(F)F)ccnc1C[S@@+]([O-])c1nc2ccccc2[nH]1.OC[C@@H](O)[C@@H](O)[C@H](O)[C@@H](O)CO [SP134-SBT-P26]
- FT-Raman post-DVS compared with pre-DVS/reference (form change) [3]: no phase transition
- DVS water uptake at about 85% r.h. relative to the mass at 0% r.h. ([3]; isothermal DVS at 25° C.): 0.12%
- DVS water uptake at about 85% r.h. relative to the mass at 0% r.h. [3, 17]: 0.08%
- DVS mass loss below 50% r.h. ([3]; isothermal DVS at 25° C.): ~0.07%
- DVS mass loss below 50% r.h. [3, 17]: ~0.06%
- Hygroscopicity class ([3]; isothermal DVS at 25° C., water uptake at about 85% r.h. relative to the mass at 0% r.h.): not hygroscopic
- Approximate solubility ([5]; 1:3 DMSO/EtOH, 10° C.): 14 to 16 mg/mL
- Approximate solubility ([5]; 1:3 DMSO/EtOH, 40° C.): 50 to 63 mg/mL
- Approximate solubility ([5]; 1:4 DMSO/EtOH, 10° C.): 11.5 to 12.5 mg/mL
- Approximate solubility ([5]; 1:4 DMSO/EtOH, 40° C.): >37 mg/mL
- Approximate solubility ([5]; 1:5 DMSO/EtOH, 10° C.): 9.3 to 9.8 mg/mL
- Approximate solubility ([5]; 1:5 DMSO/EtOH, 40° C.): 17 to 23 mg/mL
- Solubility relative to sorbitol and dexlansoprazole ([5]; DMSO/EtOH, 40° C.): less soluble than sorbitol and dexlansoprazole

Compound: Cc1c(OCC(F)(F)F)ccnc1C[S@@+]([O-])c1nc2ccccc2[nH]1 [Dexlansoprazole]
- Descriptive solubility ([7]; acetonitrile): soluble
- Descriptive solubility ([7]; dichloromethane): freely soluble
- Descriptive solubility ([7]; dimethyl formamide): freely soluble
- Descriptive solubility ([7]; ethanol): freely soluble
- Descriptive solubility ([7]; ether): slightly soluble
- Descriptive solubility ([7]; ethyl acetate): freely soluble
- Descriptive solubility ([7]; hexane): substantially insoluble
- Stability when exposed to light ([7]; light): stable
- Descriptive solubility ([7]; methanol): freely soluble
- Stability depending on pH conditions ([7]; neutral and alkaline vs acidic conditions): more stable in neutral and alkaline conditions than acidic conditions
- Descriptive solubility ([7]; water): very slightly soluble

Source: patent US8318943B1, “Sorbitol/dexlansoprazole co-crystals and method for making same” (Takeda Pharmaceuticals U.S.A., Inc., priority 2010, dated 2012)
